Several values for one entry are separate records, joined by “and”; a condition that tells them apart may be missing. Equal values may be shown once. Marks after values point to notes of the source that are not given here.

By CC50 is commonly meant the concentration that lowers cell viability or growth by half.

In data set [1] the test system is A/Udorn/72 (H3N2) virus (M2-WT). As to the kind of experiment: microbe, parasite or virus in culture. It is filed as cell-based. To be noted: Influenza A virus, H3N2, MDCK, read-out: Antiviral Efficacy EC50, A/Udorn/72 (H3N2) M2-WT.
In data set [2] the test system is influenza A/Solomon Islands/3/2006 (H1N1) virus. Also on record: species or system BALB/c mice. To be noted: mouse, in vivo.
For data set [3] the following is noted: mouse, in vivo.
The subject of the next data set is MDCK cells. The settings on record: read-out: Cytotoxicity CC50, neutral red, 24 h.

Regarding `NC12CC3CC(CC(C3)C1)C2` [Amantadine (1), amantadine], the EC50 in data set [1] turned out to be […]. Also, in data set [2], the “MDD ± SD (mean day of death)” value was 13.0 ± 6.4 days and 9.4 ± 1.9 days; the Survivors/Total is […]; the “survival rate / protection” value is recorded as […].

For the compound `NC1CCC2(CC1)C1CC3CC(C1)CC2C3` (stereo not drawn) [Compound 3, spiroadamantane amine], in data set [3], the “body weight difference compared to placebos and normal control animals” value was 3%; the tolerability entry was “well tolerated”. In data set [2], the Survivors/Total is 7/10^*** and 1/10 and 0/10; the “survival rate / protection” value amounted to 70%. Besides, the CC50 in the data set with MDCK cells was determined as 27.6 ± 0.5 µM.
